Reference: the NIST ThermoML archive (doi:10.1016/j.jct.2007.07.001)
± gives the expanded uncertainty stated by the source.

Assays:
[1] = molar heat capacity at constant pressure; conditions: 101 kPa, Liquid, Large sample (1 g) DSC
[2] = molar heat capacity at constant pressure; xn = mol fraction of the nth substance listed; conditions: 101 kPa, Liquid, Large sample (1 g) DSC

CCCCCCn1cc[n+](C)c1.F[B-](F)(F)F [1-hexyl-3-methylimidazolium tetrafluoroborate]
[1]
Conditions	molar heat capacity at constant pressure [J/K/mol]
283.15 K	423.2 ± 6.6
288.15 K	425.8 ± 6.6
293.15 K	428.4 ± 6.6
298.15 K	431 ± 6.7
303.15 K	433.6 ± 6.7
308.15 K	436.2 ± 6.8
313.15 K	438.8 ± 6.8
318.15 K	441.4 ± 6.8
323.15 K	444 ± 6.9

CCCCCCn1cc[n+](C)c1.F[B-](F)(F)F [1-hexyl-3-methylimidazolium tetrafluoroborate] + CO
molar heat capacity at constant pressure [J/K/mol], [2]
Conditions	283.15 K	288.15 K	293.15 K	298.15 K	303.15 K	308.15 K	313.15 K	318.15 K	323.15 K
x1 = 0.0751	108 ± 1.7	108.7 ± 1.7	109.5 ± 1.7	110.3 ± 1.7	111.2 ± 1.7	112.2 ± 1.7	113.2 ± 1.8	114.2 ± 1.8	115.3 ± 1.8
x1 = 0.1511	135.5 ± 2.1	136.4 ± 2.1	137.4 ± 2.1	138.3 ± 2.1	139.3 ± 2.2	140.3 ± 2.2	141.3 ± 2.2	142.4 ± 2.2	143.4 ± 2.2
x1 = 0.2973	187.2 ± 2.9	188.1 ± 2.9	188.9 ± 2.9	189.9 ± 2.9	190.8 ± 3	191.8 ± 3	192.9 ± 3	193.9 ± 3	195.1 ± 3
x1 = 0.397	220.7 ± 3.4	221.7 ± 3.4	222.8 ± 3.5	223.9 ± 3.5	225.1 ± 3.5	226.3 ± 3.5	227.5 ± 3.5	228.8 ± 3.5	230.1 ± 3.6
x1 = 0.6423	301.9 ± 4.7	303.6 ± 4.7	305.3 ± 4.7	307 ± 4.8	308.7 ± 4.8	310.5 ± 4.8	312.3 ± 4.8	314.1 ± 4.9	315.9 ± 4.9
x1 = 0.8759	380.4 ± 5.9	382.7 ± 5.9	385 ± 6	387.4 ± 6	389.7 ± 6	392.1 ± 6.1	394.5 ± 6.1	396.9 ± 6.1	399.3 ± 6.2
x1 = 1	423.2 ± 6.6	425.8 ± 6.6	428.4 ± 6.6	431 ± 6.7	433.6 ± 6.7	436.2 ± 6.8	438.8 ± 6.8	441.4 ± 6.8	444 ± 6.9

CCCCCCCC[n+]1ccn(C)c1.F[B-](F)(F)F [1-methyl-3-octylimidazolium tetrafluoroborate]
[1]
Conditions	molar heat capacity at constant pressure [J/K/mol]
283.15 K	490.1 ± 7.6
288.15 K	493.2 ± 7.6
293.15 K	496.3 ± 7.7
298.15 K	499.4 ± 7.7
303.15 K	502.5 ± 7.8
308.15 K	505.4 ± 7.8
313.15 K	508.4 ± 7.9
318.15 K	511.3 ± 7.9
323.15 K	514.2 ± 8

CCCCCCCC[n+]1ccn(C)c1.F[B-](F)(F)F [1-methyl-3-octylimidazolium tetrafluoroborate] + CO
molar heat capacity at constant pressure [J/K/mol], [2]
Conditions	283.15 K	288.15 K	293.15 K	298.15 K	303.15 K	308.15 K	313.15 K	318.15 K	323.15 K
x1 = 0.0736	111.8 ± 1.7	112.7 ± 1.7	113.6 ± 1.8	114.6 ± 1.8	115.6 ± 1.8	116.6 ± 1.8	117.7 ± 1.8	118.9 ± 1.8	120.1 ± 1.9
x1 = 0.1652	151.5 ± 2.3	152.6 ± 2.4	153.7 ± 2.4	154.7 ± 2.4	155.9 ± 2.4	157 ± 2.4	158.1 ± 2.4	159.3 ± 2.5	160.4 ± 2.5
x1 = 0.3441	226.4 ± 3.5	227.4 ± 3.5	228.5 ± 3.5	229.6 ± 3.6	230.8 ± 3.6	232.1 ± 3.6	233.5 ± 3.6	235 ± 3.6	236.6 ± 3.7
x1 = 0.4516	269.5 ± 4.2	270.8 ± 4.2	272.1 ± 4.2	273.5 ± 4.2	275 ± 4.3	276.6 ± 4.3	278.2 ± 4.3	279.9 ± 4.3	281.6 ± 4.4
x1 = 0.6526	349.3 ± 5.4	351.3 ± 5.4	353.3 ± 5.5	355.3 ± 5.5	357.4 ± 5.5	359.6 ± 5.6	361.8 ± 5.6	364 ± 5.6	366.4 ± 5.7
x1 = 0.8472	427.6 ± 6.6	430.3 ± 6.7	433 ± 6.7	435.7 ± 6.8	438.4 ± 6.8	441.1 ± 6.8	443.7 ± 6.9	446.3 ± 6.9	448.9 ± 7
x1 = 1	490.1 ± 7.6	493.2 ± 7.6	496.3 ± 7.7	499.4 ± 7.7	502.5 ± 7.8	505.4 ± 7.8	508.4 ± 7.9	511.3 ± 7.9	514.2 ± 8

CO [methanol]
[1]
Conditions	molar heat capacity at constant pressure [J/K/mol]
283.15 K	78.6 ± 1.2
288.15 K	79.5 ± 1.2
293.15 K	80.4 ± 1.2
298.15 K	81.3 ± 1.3
303.15 K	82.3 ± 1.3
308.15 K	83.4 ± 1.3
313.15 K	84.5 ± 1.3
318.15 K	85.7 ± 1.3
323.15 K	87 ± 1.3

CO [methanol] + CCCCCCCC[n+]1ccn(C)c1.F[B-](F)(F)F
[2], x2 = 0
Conditions	molar heat capacity at constant pressure [J/K/mol]
283.15 K	78.6 ± 1.2
288.15 K	79.5 ± 1.2
293.15 K	80.4 ± 1.2
298.15 K	81.3 ± 1.3
303.15 K	82.3 ± 1.3
308.15 K	83.4 ± 1.3
313.15 K	84.5 ± 1.3
318.15 K	85.7 ± 1.3
323.15 K	87 ± 1.3

CO [methanol] + CCCCCCn1cc[n+](C)c1.F[B-](F)(F)F
[2], x2 = 0
Conditions	molar heat capacity at constant pressure [J/K/mol]
283.15 K	78.6 ± 1.2
288.15 K	79.5 ± 1.2
293.15 K	80.4 ± 1.2
298.15 K	81.3 ± 1.3
303.15 K	82.3 ± 1.3
308.15 K	83.4 ± 1.3
313.15 K	84.5 ± 1.3
318.15 K	85.7 ± 1.3
323.15 K	87 ± 1.3
